The source of these data is ChEMBL document CHEMBL5728170, “Substituted pyrrolizine compounds and uses thereof” (2020).

The assay can be described thus: HBV DNA Quantification Assay: A HepG2 cell line overexpressing the HBV virus attachment receptor sodium-taurocholate cotransporting polypeptide (NTCP) was grown to confluency in DMEM growth medium, Dulbecco's Modified Eagle Medium without sodium pyruvate (Life Technologies, Rockville, Md.) supplemented with 10% FBS (Thermo Scientific, Waltham, Md.), 1% penicillin/streptomycin (Life Technologies, Rockville, Md.) and 2 mM L-glutamine (Life Technologies, Rockville, Md.) in T175 flasks. Cells were infected with HBV AD38 viral particles (Texcell, Frederick, USA) at 4000 genome equivalents per cell. After allowing viral infection to take place for 4 days, the infected cells were harvested from the flasks by trypsinization, washed twice with OptiMEM (Life Technologies, Rockville, Md.) and re-suspended in DMEM containing 2% FBS and 1% DMSO at a density of 0.25E6 cells/ml. Infected cells were seeded on 384 well collagen coated plates (Greiner, Austria) at a density of 20,000 cells/well containing serially diluted compounds of the present disclosure or DMSO (0.5%) in a final volume of 80 μl. The assay plates were incubated for a period of 5 days and the antiviral activity of the test compounds were assayed by detecting the presence of HBV DNA in the culture supernatant using the QuantiGene™ 2.0 nucleic acid quantification kit (Affymetrix, Santa Clara, Calif.).The culture supernatant was harvested and treated with lysis buffer containing Proteinase K (Affymetrix, Santa Clara, Calif.). The supernatant was incubated with HBV viral DNA specific probes (Affymetrix, Santa Clara, Calif.) for 30 minutes at 55° C. This was followed by addition of 0.2M NaOH for 30 minutes at room temperature to denature the DNA, followed by addition of Neutralization buffer (Affymetrix, Santa Clara, Calif.). The resulting lysed and neutralized supernatant was then added to QuantiGene™ 2.0 384 well plates coated with capture oligonucleotides and incubated overnight at 55° C. The HBV specific probe set consists of Capture Extender oligonucleotides (CE's) and blocking probes. Following the overnight incubation, the wells were incubated for one hour sequentially with a Pre-Amplifier, Amplifier and Labeled probes conjugated to alkaline phosphatase with a wash step between incubations. After the final wash step, the alkaline phosphatase substrate (Luminol APS5) was added and the resulting luminescence signal was read in an EnVision Multilabel Plate Reader (PerkinElmer, Santa Clara, Calif.). The EC50 values were calculated from the fit of the dose-response curves to a four-parameter equation.

As usually defined, the EC50 is the concentration needed to bring the measured effect to its halfway point.

With `CC(NC(=O)C(=O)c1c(Cl)c(C(=O)Nc2ccc(F)c(C#N)c2)n2c1CCC2)C(F)(F)F` (centres undefined), the EC50 is 27.1 nM. `Cc1c(C(=O)C(=O)NC2(C(=O)N3CC4(C3)CN(S(C)(=O)=O)C4)CC(F)(F)C2)c2n(c1C(=O)Nc1ccc(F)c(C#N)c1)CCC2`: the EC50 was 112 nM. With `Cc1c(C(=O)C(=O)NC2(C(=O)N3CC4(COC4)C3)CC(F)(F)C2)c2n(c1C(=O)Nc1ccc(F)c(C#N)c1)CCC2`, the EC50 was 32.3 nM. Next, `CNC(=O)C1(NC(=O)C(=O)c2c(C)c(C(=O)OC)n3c2C[C@H]2C[C@H]23)CC(F)(F)C1`: 8.8 nM.
